These results are taken from patent US20260258064A1 (SIRONAX LTD., priority 2023, published 2026).

This assay addresses T1, SARM1 (50-724) (Homo sapiens, UniProt Q6SZW1).
T1 construct: Purified SARM1 (50-724) with a final concentration of 2 nM was pre-incubated with a test compound
T1 sequence (Q6SZW1 50-724): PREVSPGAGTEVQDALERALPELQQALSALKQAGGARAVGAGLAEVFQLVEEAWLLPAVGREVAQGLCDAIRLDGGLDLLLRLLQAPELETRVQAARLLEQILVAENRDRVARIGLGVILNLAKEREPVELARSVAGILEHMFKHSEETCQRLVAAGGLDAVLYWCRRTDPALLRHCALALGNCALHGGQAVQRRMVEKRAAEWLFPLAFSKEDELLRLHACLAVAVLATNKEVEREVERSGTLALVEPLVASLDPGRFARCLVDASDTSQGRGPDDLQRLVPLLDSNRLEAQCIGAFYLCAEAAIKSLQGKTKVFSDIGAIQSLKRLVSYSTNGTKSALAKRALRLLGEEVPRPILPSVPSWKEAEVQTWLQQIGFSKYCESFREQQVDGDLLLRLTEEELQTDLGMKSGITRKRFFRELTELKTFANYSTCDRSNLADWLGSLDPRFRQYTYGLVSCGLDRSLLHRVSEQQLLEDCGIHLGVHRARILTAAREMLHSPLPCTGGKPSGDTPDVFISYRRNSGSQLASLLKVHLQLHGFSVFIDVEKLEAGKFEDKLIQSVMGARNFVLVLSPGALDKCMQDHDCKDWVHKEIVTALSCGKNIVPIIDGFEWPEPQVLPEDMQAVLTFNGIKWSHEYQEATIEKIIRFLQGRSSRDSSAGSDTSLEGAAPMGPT
Put plainly: SARM1 (50-724) enzymatic assay (LC-MS/MS). Particulars: Purified SARM1 (50-724) 2 nM, NMN as activator, NAD+ as substrate, 1 h at room temperature, read-out: IC50 (SARM1 inhibitory activity). The format is biochemical. A digest of the protocol:
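Human SARM1 (50-724), 2 nM, pre-incubated 15 min at room temperature with compound in Dulbecco's PBS. Reaction started with 200 µM NMN (activator) plus […] NAD^+ substrate, run 1 h at room temperature, quenched with 70% acetonitrile. Turnover quantified by LC-MS/MS; IC50 reported.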

pIC50: −log10 of the molar value.

On to `CN(CCC(N)=O)c1cc(F)c2[nH]c(-c3nncn3-c3cnccc3C(F)(F)F)nc2c1` [Compound 450, 3-((4-fluoro-2-(4-(4-(trifluoromethyl)pyridin-3-yl)-4H-1,2,4-triazol-3-yl)-1H-benzo[d]imidazol-6-yl)(methyl)amino)propanamide], for which the pIC50 was not below 7.00. Then `O=C1CN(c2nc3cc(C(F)(F)F)ccc3[nH]2)C(c2ccccc2)CN1` (centres unmarked) [Compound 368, 5-phenyl-4-(5-(trifluoromethyl)-1H-benzo[d]imidazol-2-yl)piperazin-2-one], with less than 6.00. For `CS(=O)(=O)Cc1nnc(-c2nc3cc(C4(F)CC4)cc(F)c3[nH]2)n1-c1cccc(F)c1Cl` [Compound 203, 2-(4-(2-chloro-3-fluorophenyl)-5-((methylsulfonyl)methyl)-4H-1,2,4-triazol-3-yl)-7-fluoro-5-(1-fluorocyclopropyl)-1H-benzo[d]imidazole], the pIC50 is not below 7.00. Then `Fc1cc(C(F)(F)F)cc2nc(-c3nncn3-c3cc(Cl)ncc3OC(F)(F)F)[nH]c12` [Compound 218, 2-(4-(2-chloro-5-(trifluoromethoxy)pyridin-4-yl)-4H-1,2,4-triazol-3-yl)-7-fluoro-5-(trifluoromethyl)-1H-benzo[d]imidazole], with not below 7.00; and `CC(C)(O)CCOc1ccc(OC(F)(F)F)c(-n2cnnc2-c2nc3cc(C(F)(F)F)ccc3[nH]2)n1` [Compound 256, 2-methyl-4-((5-(trifluoromethoxy)-6-(3-(5-(trifluoromethyl)-1H-benzo[d]imidazol-2-yl)-4H-1,2,4-triazol-4-yl)pyridin-2-yl)oxy)butan-2-ol], with not below 7.00; and `Cn1cc(-c2ccc3[nH]c(-c4nncn4-c4cccc(Cl)c4Cl)nc3c2)cn1` [Example 79, 2-(4-(2,3-dichlorophenyl)-4H-1,2,4-triazol-3-yl)-5-(1-methyl-1H-pyrazol-4-yl)-1H-benzo[d]imidazole], with 6.30 to 7.00. As to `FC(F)(F)c1ccc2[nH]c(-c3nncn3-c3ccncc3OC3CC3)nc2c1` [Compound 228], the pIC50 is less than 6.00. Then `Cn1c(-n2cnnc2-c2nc3cc(C(F)(F)F)ccc3[nH]2)c(C(F)(F)F)ccc1=O` [Compound 284, 1-methyl-5-(trifluoromethyl)-6-(3-(5-(trifluoromethyl)-1H-benzo[d]imidazol-2-yl)-4H-1,2,4-triazol-4-yl)pyridin-2(1H)-one], with not below 7.00; and `CS(=O)(=O)c1c(-c2nncn2-c2cccc(F)c2Cl)[nH]c2ccc(C(F)(F)F)cc12` [Compound 346, 2-[4-(2-chloro-3-fluorophenyl)-1,2,4-triazol-3-yl]-3-methanesulfonyl-5-(trifluoromethyl)-1H-indole], with not below 7.00; and `CC1(C)CC1c1cc(F)c2[nH]c(-c3nncn3-c3cnccc3C(F)(F)F)nc2c1` (centres unmarked) [Compound 347, 5-(2,2-dimethylcyclopropyl)-7-fluoro-2-(4-(4-(trifluoromethyl)pyridin-3-yl)-4H-1,2,4-triazol-3-yl)-1H-benzo[d]imidazole], with not below 7.00. Then `Clc1cccc(-n2cnnc2-c2nc3cc(Br)ccc3[nH]2)c1Cl` [Compound 49, 5-bromo-2-(4-(2,3-dichlorophenyl)-4H-1,2,4-triazol-3-yl)-1H-benzo[d]imidazole], with not below 7.00. Then `CS(=O)(=O)Cn1ncc(-c2nc3cc(C(F)(F)F)ccc3[nH]2)c1-c1cccc(Cl)c1Cl` [Compound 439, 2-(5-(2,3-dichlorophenyl)-1-((methylsulfonyl)methyl)-1H-pyrazol-4-yl)-5-(trifluoromethyl)-1H-benzo[d]imidazole], with 6.30 to 7.00; and `CC(C)(C)c1ccc2[nH]c(-c3nncn3-c3nc(O)ccc3Cl)nc2c1` [Compound 148, 6-(3-(5-(tert-butyl)-1H-benzo[d]imidazol-2-yl)-4H-1,2,4-triazol-4-yl)-5-chloropyridin-2(1H)-one], with not below 7.00. As to `Cn1cc(OC(F)(F)F)c(-n2cnnc2-c2nc3c(F)c(C4CC4)ccc3[nH]2)cc1=O` [Compound 354, 4-(3-(5-cyclopropyl-4-fluoro-1H-benzo[d]imidazol-2-yl)-4H-1,2,4-triazol-4-yl)-1-methyl-5-(trifluoromethoxy)pyridin-2(1H)-one], the pIC50 was not below 7.00. Then `CCC(c1ccc2[nH]c(-c3nncn3-c3ccncc3OC(F)(F)F)nc2c1)C(F)F` (centres unmarked) [Compound 238, 5-(1,1-difluorobutan-2-yl)-2-(4-(3-(trifluoromethoxy)pyridin-4-yl)-4H-1,2,4-triazol-3-yl)-1H-benzo[d]imidazole], with not below 7.00; and `CC(c1ccncc1)c1cc(F)c2[nH]c(-c3nncn3-c3cnccc3C(F)(F)F)nc2c1` (centres unmarked) [Compound 445, 7-fluoro-5-(1-(pyridin-4-yl)ethyl)-2-(4-(4-(trifluoromethyl)pyridin-3-yl)-4H-1,2,4-triazol-3-yl)-1H-benzo[d]imidazole], with not below 7.00; and `Fc1cc(C2CC23CCOC3)cc2nc(-c3nncn3-c3cnccc3C(F)(F)F)[nH]c12` (centres unmarked) [Compound 414, 7-fluoro-5-(5-oxaspiro[2.4]heptan-2-yl)-2-[4-[4-(trifluoromethyl)-3-pyridyl]-1,2,4-triazol-3-yl]-1H-benzimidazole], with not below 7.00. Then `CC(C)(O)COc1ccc(OC(F)(F)F)c(-n2cnnc2-c2nc3cc(C(F)(F)F)ccc3[nH]2)n1` [Compound 255, 2-methyl-1-((5-(trifluoromethoxy)-6-(3-(5-(trifluoromethyl)-1 H-benzo[d]imidazol-2-yl)-4H-1,2,4-triazol-4-yl)pyridin-2-yl)oxy)propan-2-ol], with not below 7.00; and `N#CC1(c2ccc3[nH]c(-c4nncn4-c4cccc(F)c4Cl)nc3c2)COC1` [Compound 180, 3-(2-(4-(2-chloro-3-fluorophenyl)-4H-1,2,4-triazol-3-yl)-1H-benzo[d]imidazol-5-yl)oxetane-3-carbonitrile], with not below 7.00; and `Cn1nc(Cl)c(Cl)c1-n1cnnc1-c1nc2cc(C(F)(F)F)ccc2[nH]1` [Example 63], with 6.30 to 7.00. Then `Cc1nnc(-c2nc3cc(C(F)(F)F)ccc3[nH]2)n1-c1cccc(Cl)c1Cl` [Example 87, 2-(4-(2,3-dichlorophenyl)-5-methyl-4H-1,2,4-triazol-3-yl)-5-(trifluoromethyl)-1H-benzo[d]imidazole], with not below 7.00; and `NC(=O)c1ncc(-c2nc3cc(C(F)(F)F)ccc3[nH]2)n1-c1cccc(Cl)c1Cl` [Example 89, 1-(2,3-dichlorophenyl)-5-(5-(trifluoromethyl)-1H-benzo[d]imidazol-2-yl)-1H-imidazole-2-carboxamide], with 6.30 to 7.00. Regarding `CS(=O)(=O)Cc1nnc(-c2nc3cc(C(F)(F)F)cc(F)c3[nH]2)n1-c1cccc(F)c1Cl` (single isomer, unassigned) [Compound 184, 2-(4-(2-Chloro-3-fluorophenyl)-5-((methylsulfonyl)methyl)-4H-1,2,4-triazol-3-yl)-7-fluoro-5-(trifluoromethyl)-1H-benzo[d]imidazole], the pIC50 is not below 7.00. For the molecule `FC(F)(F)c1ccc2[nH]c(-c3ccnnc3-c3cccc(Cl)c3Cl)nc2c1` [Compound 296, 2-(3-(2,3-dichlorophenyl)pyridazin-4-yl)-5-(trifluoromethyl)-1H-benzo[d]imidazole], the pIC50 was 6.30 to 7.00.

Take `CS(=O)(=O)Cc1nnc(-c2nc3c(F)c(C(F)(F)F)ccc3[nH]2)n1-c1cccc(F)c1Cl` (single isomer, unassigned) [Compound 196, 2-(4-(2-chloro-3-fluorophenyl)-5-((methylsulfonyl)methyl)-4H-1,2,4-triazol-3-yl)-4-fluoro-5-(trifluoromethyl)-1H-benzo[d]imidazole]: the pIC50 was less than 6.00. Then `FC(F)(F)c1ccc2[nH]c(-c3cnsc3-c3cccc(Cl)c3Cl)nc2c1` [Example 92], with 6.30 to 7.00; and `NC1CC1c1ccc2[nH]c(-c3nncn3-c3cnccc3C(F)(F)F)nc2c1F` (centres unmarked) [Compound 324, 2-(4-fluoro-2-(4-(4-(trifluoromethyl)pyridin-3-yl)-4H-1,2,4-triazol-3-yl)-1H-benzo[d]imidazol-5-yl)cyclopropan-1-amine], with 6.30 to 7.00. Then `CC(Oc1cc(F)c2[nH]c(-c3nncn3-c3cnccc3C(F)(F)F)nc2c1)C(F)(F)F` (centres unmarked) [Compound 355, 7-fluoro-2-(4-(4-(trifluoromethyl)pyridin-3-yl)-4H-1,2,4-triazol-3-yl)-5-((1,1,1-trifluoropropan-2-yl)oxy)-1H-benzo[d]imidazole], with not below 7.00. Then `Fc1cc(C(F)(F)F)cc2nc(-c3nnc(CC(F)F)n3-c3cnccc3C(F)(F)F)[nH]c12` [Compound 317, 2-(5-(2,2-difluoroethyl)-4-(4-(trifluoromethyl)pyridin-3-yl)-4H-1,2,4-triazol-3-yl)-7-fluoro-5-(trifluoromethyl)-1H-benzo[d]imidazole], with not below 7.00.
